Measured values from ChEMBL document CHEMBL6083254, “Optimization of B-Ring-Functionalized Antimalarial Tambjamines and Prodiginines” (J Med Chem, 2024).
Active and inactive are the calls of the source. No cut-off for these calls is given here.

Legend:
Plasmodium yoelii [1] = test: Antiplasmodial activity against asexual erythrocytic stage of Plasmodium yoelii infected in female CFI mouse model assessed as reduction in parasitemia at 25 mg/kg, po administered once daily for 4 days and measured on day 5 by Giemsa staining based microscopic analysis relative to control; format: functional; set-up: scale not given: the % may be the effect or the level left; conditions: time 5 day
Plasmodium yoelii [2] = test: Antiplasmodial activity against asexual erythrocytic stage of Plasmodium yoelii infected in female CFI mouse model assessed as reduction in parasitemia at 1 mg/kg, po administered once daily for 4 days and measured on day 5 by Giemsa staining based microscopic analysis relative to control; format: functional
Plasmodium yoelii [3] = test: Antiplasmodial activity against asexual erythrocytic stage of Plasmodium yoelii infected in female CFI mouse model assessed as reduction in parasitemia at 3 mg/kg, po administered once daily for 4 days and measured on day 5 by Giemsa staining based microscopic analysis relative to control; format: functional
Plasmodium yoelii [4] = test: Antiplasmodial activity against asexual erythrocytic stage of Plasmodium yoelii infected in female CFI mouse model assessed as reduction in parasitemia at 10 mg/kg, po administered once daily for 4 days and measured on day 5 by Giemsa staining based microscopic analysis relative to control; format: functional
Plasmodium yoelii [5] = test: Antiplasmodial activity against asexual erythrocytic stage of Plasmodium yoelii infected in female CFI mouse model at 25 mg/kg, po administered once daily for 4 days and measured on day 5 by Giemsa staining based microscopic analysis; format: functional, organism-based; conditions: time 5.0 day
HepG2 = test: Cytotoxicity against human HepG2 cells assessed as cell viability incubated for 72 hrs by MTT assay; format: toxicity, cell-based; conditions: hepg2
Plasmodium yoelii [6] = test: Antiplasmodial activity against asexual erythrocytic stage of Plasmodium yoelii infected in po dosed female CFI mouse model assessed as reduction in parasitemia administered once daily for 4 days and measured on day 5 by Giemsa staining based microscopic analysis; format: functional; conditions: 120 h, time 5 day
in vitro = conditions: human
Description: Selectivity index, ratio of IC50 for cytotoxicity against human HepG2 cells assessed as cell viability to IC50 for antiplasmodial activity against asexual erythrocytic stage of Plasmodium falciparum D6 assessed as inhibition of parasitic growth incubated

Plasmodium falciparum [7] = test: microbe, parasite or virus in culture; conditions: D6, 72 h
Plasmodium falciparum [8] = test: microbe, parasite or virus in culture; conditions: Dd2, 72 h
Plasmodium falciparum [9] = test: microbe, parasite or virus in culture; conditions: Tm90-C2B, 72 h
[10] = Metabolic stability in human liver microsomes assessed as half life measured upto 60 mins LC-MS analysis
[11] = Metabolic stability in mouse liver microsomes assessed as half life measured upto 60 mins LC-MS analysis
[12] = Metabolic stability in human liver microsomes assessed as intrinsic clearance measured upto 60 mins LC-MS analysis
[13] = Metabolic stability in mouse liver microsomes assessed as intrinsic clearance measured upto 60 mins LC-MS analysis
[14] = Aqueous solubility of compound in PBS buffer at pH 7.4 incubated for 90 mins by UV-vis spectroscopic analysis; conditions: pH 7.4, 1.5 h

Compound	Activity (Plasmodium yoelii [1])	Activity (Plasmodium yoelii [2]; time 5.0 day)	Activity (Plasmodium yoelii [3]; time 5.0 day)	Activity (Plasmodium yoelii [4]; time 5.0 day)	Activity (Plasmodium yoelii [5])	IC50 (HepG2)	ED50 (Plasmodium yoelii [6]; Plasmodium yoelii, po, read-out: ED50)	ED50 (Plasmodium yoelii [6])	Activity (Plasmodium yoelii [2]; time 5 day)	Activity (Plasmodium yoelii [4]; time 5 day)	selectivity ratio (in vitro)	IC50 (Plasmodium falciparum [7])	IC50 (Plasmodium falciparum [8])	IC50 (Plasmodium falciparum [9])	half-life at 1 h [10]	half-life at 1 h [11]	microsomal CLint at 1 h [12]	microsomal CLint at 1 h [13]	solubility [14]	Activity (Plasmodium yoelii [3]; time 5 day)
CCN(CC)CCCC(C)Nc1ccnc2cc(Cl)ccc12 (stereo not drawn) [CHLOROQUINE]	100%	inactive	inactive	inactive	inactive	–	–	–	–	–	–	–	–	–	–	–	–	–	–	–
CCCCCc1cc(/C=C2\N=C(c3ccc[nH]3)C=C2Oc2ccc(Cl)cc2)[nH]c1C.Cl	–	–	–	–	Active	9570 nM	1.15 mg/kg/day	1.25 mg/kg/day	5.01%	100%	1210	7.89 nM	7.03 nM	10 nM	–	–	–	–	–	–
C1=C(OCc2ccccc2)/C(=C/NC2CCCCCC2)N=C1c1ccc[nH]1.Cl	59.5%	–	–	–	–	3680 nM	–	–	–	–	194	19 nM	17.3 nM	21.3 nM	16.3 min	> 60 min	85.1 µL/min/mg	16 µL/min/mg	15.8 µM	–
CCCCCc1cc(/C=C2\N=C(c3ccc[nH]3)C=C2OCc2ccccc2)[nH]c1C.Cl	100%	–	–	–	–	7090 nM	–	–	16.8%	86.9%	896	7.91 nM	4.25 nM	9.73 nM	> 60 min	> 60 min	3.89 µL/min/mg	7.33 µL/min/mg	< 3.125 µM	43.3%
Cl.FC(F)(F)Oc1ccc(COC2=CC(c3ccc[nH]3)=N/C2=C\NC23CC4CC(CC(C4)C2)C3)cc1	81.8%	–	–	–	–	3740 nM	–	–	–	–	1860	2.01 nM	1.82 nM	2.43 nM	45.4 min	56.4 min	30.6 µL/min/mg	24.6 µL/min/mg	< 3.125 µM	–
CCCCCCCCCCCc1ccc(/C=C2\N=C(c3ccc[nH]3)C=C2OC(C)C)[nH]1.Cl	100%	inactive	inactive	inactive	inactive	87300 nM	–	–	–	–	3240	26.9 nM	18.2 nM	35.6 nM	–	–	–	–	–	–
CC(C)OC1=CC(c2ccc[nH]2)=N/C1=C\NC12CC3CC(CC(C3)C1)C2.Cl	74.1%	–	–	–	–	1270 nM	–	–	–	–	715	1.78 nM	2 nM	2.05 nM	14.2 min	30.9 min	97.6 µL/min/mg	44.8 µL/min/mg	78 µM	–
CCCCCc1cc(/C=C2\N=C(c3ccc[nH]3)C=C2OCc2ccc(Cl)cc2)[nH]c1C.Cl	97.1%	inactive	inactive	inactive	–	10500 nM	–	–	–	–	1480	7.13 nM	4.44 nM	8.73 nM	–	–	–	–	–	–
CC(C)OC1=CC(c2ccc[nH]2)=N/C1=C\NC1CCCCCC1.Cl	43.6%	–	–	–	–	3580 nM	–	–	–	–	1020	3.51 nM	3.82 nM	5.42 nM	12.2 min	18 min	114 µL/min/mg	76.8 µL/min/mg	157 µM	–
CCCCCCCCCCCc1ccc(/C=C2\N=C(c3ccc[nH]3)C=C2OCCC)[nH]1.Cl	100%	inactive	inactive	inactive	inactive	18900 nM	–	–	–	–	2810	6.71 nM	7.56 nM	8.01 nM	–	–	–	–	–	–
CCCOC1=CC(c2ccc[nH]2)=N/C1=C\NC12CC3CC(CC(C3)C1)C2.Cl	81.8%	–	–	–	–	2510 nM	–	–	–	–	2140	1.17 nM	1.45 nM	1.61 nM	32 min	43.5 min	42.8 µL/min/mg	31.8 µL/min/mg	52.2 µM	–
C1=C(OCc2ccccc2)/C(=C/NC23CC4CC(CC(C4)C2)C3)N=C1c1ccc[nH]1.Cl	63%	–	–	–	–	1100 nM	–	–	–	–	171	6.45 nM	7.49 nM	5.25 nM	19.3 min	> 60 min	71.7 µL/min/mg	17.8 µL/min/mg	5.91 µM	–
CCCCCc1cc(/C=C2\N=C(c3ccc[nH]3)C=C2OCc2ccc(OC(F)(F)F)cc2)[nH]c1C.Cl	100%	inactive	inactive	inactive	inactive	6520 nM	–	–	–	–	900	7.24 nM	7.97 nM	12.5 nM	–	–	–	–	–	–
CCCCCCCCCCCc1ccc(/C=C2\N=C(c3ccc[nH]3)C=C2OCc2ccccc2)[nH]1.Cl	62.3%	inactive	inactive	inactive	–	53600 nM	–	–	–	–	2020	–	26.4 nM	22.4 nM	> 60 min	> 60 min	7.29 µL/min/mg	4.03 µL/min/mg	< 3.125 µM	–
CCCCCCCCCCCc1ccc(/C=C2\N=C(c3ccc[nH]3)C=C2OCC)[nH]1.Cl	100%	inactive	inactive	inactive	inactive	21000 nM	–	–	–	–	4750	4.41 nM	3.45 nM	4.02 nM	> 60 min	41.9 min	19.1 µL/min/mg	33.1 µL/min/mg	< 3.125 µM	–
CCOC1=CC(c2ccc[nH]2)=N/C1=C\NC12CC3CC(CC(C3)C1)C2.Cl	24%	–	–	–	–	1070 nM	–	–	–	–	2150	0.497 nM	0.77 nM	0.715 nM	17.7 min	32.7 min	78.3 µL/min/mg	42.4 µL/min/mg	115 µM	–
